# Test results reported in US10717788B2, “Cyclodextrin functionalized nanoparticles for quenching bacterial communications” (University of South Carolina, priority 2014, dated 2020).
# Legend:
# Vibrio fischeri [1] = test: Growth studies: luminescence of Vibrio fischeri in vitro; format: cell-based
# Vibrio fischeri [2] = test: Quantification of gene expression during luminescence; format: cell-based
# [3] = NMR diffusion experiments, binding affinity of cyclodextrin for N-octanoyl-homoserine lactone; conditions: based on dissociation constants calculated from the diffusion data
# Procedure: To confirm that cyclodextrin was the active quenching agent in the model system, NMR diffusion experiments were performed.
structure (smiles),measurement,setting,value
"OC[C@H]1O[C@@H]2O[C@H]3[C@H](O)[C@@H](O)[C@@H](O[C@H]4[C@H](O)[C@@H](O)[C@@H](O[C@H]5[C@H](O)[C@@H](O)[C@@H](O[C@H]6[C@H](O)[C@@H](O)[C@@H](O[C@H]7[C@H](O)[C@@H](O)[C@@H](O[C@H]8[C@H](O)[C@@H](O)[C@@H](O[C@H]1[C@H](O)[C@H]2O)O[C@@H]8CO)O[C@@H]7CO)O[C@@H]6CO)O[C@@H]5CO)O[C@@H]4CO)O[C@@H]3CO [cyclodextrin, β-Cyclodextrin]",luminescence,Vibrio fischeri [1],reduce luminescence
same,production of autoinducers and luciferase (gene expression),Vibrio fischeri [2],decrease in the production of autoinducers and luciferase
same,binding of N-octanoyl-homoserine lactone (complex formation),[3],able to bind cyclodextrin and form a complex
